Measurements published in patent US7601687B2, “Mechanism for identifying drugs for the treatment of type II diabetes” (BioCrine AB, priority 2006, dated 2009).

How the values were obtained:
βGK mRNA = βGK mRNA steady-state levels (comparative RT-PCR) in cultured pancreatic islets / insulin-producing cells; assay type: cell-based, rat; details: 50 mM KCl or 1 μM glibenclamide for 5 min at substimulatory glucose
Experimental: (§1) Insulin-producing HIT-T15 cells were obtained from ATCC. HIT cells were reported to show glucose responsiveness at subphysiological concentrations between 0.1 and 2 mM (Sharma et al., 1995). HIT cells were grown in RPMI 1640 medium supplemented with 100 units/ml penicillin, 100 μg/ml streptomycin, 2 mM glutamine and 10% fetal calf serum at 5% CO2 and 37° C. Pancreatic islets were isolated from normally fed male Wistar rats and from mice by collagenase digestion. Isolated islets were incubated overnight at 5% CO2 and 37° C. in RPMI 1640 medium, supplemented as described above. Transfection of HIT-T15 and islet cells was performed overnight by the lipofectamine technique in RPMI 1640 medium, without serum and antibiotics. For on-line monitoring, cells were grown and transfected on 24-mm glass coverslips. Following transfection, HIT cells were cultured for 12-18 h in RPMI 1640 medium containing 0.1 mM glucose, 10% fetal calf serum and supplemented as above. Before stimulation, islets and islet cells were incubated for 2 h in RPMI 1640 medium, supplemented as above but containing 3 mM glucose. All expression constructs were prepared using the Qiagen Plasmid Maxi Kit (Qiagen), except those used to produce the adenoviruses which where purified by ultracentrifugation via a CsCI-gradient (as described in Sambrook et al, 1989).
(§2) All experiments were performed in RPMI 1640 medium, supplemented as above. Protein kinase inhibitors, antibodies or nifedipine were added to the culture medium 30 min prior to stimulation and were kept in the medium throughout stimulation. After stimulation islets, islet cells and HIT cells were cultured further at substimulatory glucose concentrations (0.1 mM for HIT cells and 3 mM for islets and islet cells). For RNA-analysis, islets and cells were harvested 60 min after start of stimulation, if not indicated otherwise. For analysis of protein kinase activities or tyrosine phosphorylation, cells were harvested immediately following stimulation.
RNA Analysis Levels of βGK mRNA were analyzed by RNase-protection assays and comparative RT-PCR. […] Quantification of the protected complexes was performed by phosphorimaging. […] Levels of μGK mRNA were analyzed by RT-PCR using primers 5′-[…]-3′(SEQ ID NO: 1) and 5′-[…]-3′(SEQ ID NO: 2) for characterizing μGK mRNA in HIT cells and primers 5′-[…]-3′(SEQ ID NO: 3) and 5′-[…]-3′(SEQ ID NO: 4) for μGK mRNA in rat and mouse pancreatic islets and islet cells. Levels of μ-actin mRNA were analyzed by RT-PCR using primers 5′-[…]-3′(SEQ ID NO: 5) and 5′-[…]-3′(SEQ ID NO: 6). […] PCR products were separated on a 6% polyacrylamide sequencing gel and analyzed by phosphorimaging. […]

rat βGK promoter = experiment: On-line monitoring of βGK promoter-driven GFP expression (prβGK.GFP) in transfected HIT-T15 cells, islet cells and islets; assay type: cell-based, hamster (HIT-T15), rat (islet cells); details: for βGK promoter-driven GFP expression upon secretagogue stimulation: 50 mM KCl or 1 μM glibenclamide for 5 min at substimulatory glucose; for effect of inhibitor on insulin-stimulated βGK transcription / promoter activity: 5 mU/ml insulin 5 min, 150 nM BIM, 20 μM PD98059, 10 μM PD169316, 100 μM HNMPA-(AM)3, 400 nM AC, FIG. 5; for effect of inhibitor on insulin-stimulated βGK transcription / promoter activity / effect of inhibitor on insulin-stimulated βGK promoter activity (GFP) in the same co-transfected cell: 25 μM LY294002, 10 nM rapamycin; for effect of inhibitor on insulin-stimulated βGK promoter activity (GFP) in the same co-transfected cell: 5 mU/ml insulin, 400 nM AC, 100 μM HNMPA-(AM)3
Source text: Construction of prIns1.GFP has been described earlier (Leibiger et al., 1998a). Vector prIns1.DsRed was generated by exchanging the EGFP-expression cassette versus the DsRed-expression cassette obtained from pDsRed1-1 (Clontech). Plasmid prβGK.GFP (i.e. prβGK-278.GFP) was generated by exchanging the CAT-SV40pA-expression cassette of prβGK-278.CAT (Leibiger et al., 1994a) versus the EGFP-bGHpA-expression cassette obtained from pRcCMVI.GFP (Moede et al., 1999). […] All vector constructions were verified by DNA sequence analysis. […] Expression constructs pCMV5.PKBα, pCMV5.PKBαΔ308/437, pCMV5.PDK1 and pCMV5.PDK1-antisense were kindly provided by Drs. P. Cohen and D. R. Alessi (MRC Phosphorylation Unit, University of Dundee, UK).
as §1, with “HIT” for “Insulin-producing HIT-T15 cells were obtained from ATCC. HIT”
Islets were transduced with Ad.rβGK.GFP or Ad.CMV.GFP by incubating 50 islets with 1 ml virus-containing medium for 90 min at 37° C. and 5% CO2. Following transduction, islets were washed 3 times with PBS and cultured further in RPMI 1640 medium. Islets were stimulated 40-72 h after transduction, as described below and analyzed by laser-scanning confocal microscopy.
as §2
(§3) Detection of fluorescence by digital imaging fluorescence microscopy was performed as described previously (Leibiger et al., 1998a; Leibiger et al., 1998b). Briefly, transfected cells were grown on 24-mm glass coverslips. After stimulation the coverslips were placed into a perifusion chamber which was mounted on an inverted microscope (Zeiss Axiovert 135TV). Temperature was kept at 37° C. and the cells were perfused with RPMI 1640 medium. The objective lens used was a Zeiss-Fluar ×40/1.30 oil Imm Korr. Fluorescence imaging was performed with a cooled charged-coupled device camera (CH250 with KAF 1400, Photometrics, Tucson, Ariz.) connected to an imaging system (Inovision) with fluorescence excitation from a SPEX fluorolog-2 CM1T11I spectrofluorometer (Spex Industries).

[1] = system: rat insulin-I gene promoter; experiment: On-line monitoring of insulin promoter-driven DsRed/GFP expression (prIns1.DsRed) in transfected HIT-T15 cells and islet cells; assay type: cell-based, hamster (HIT-T15), rat (islet cells)
Source text: Construction of prIns1.GFP has been described earlier (Leibiger et al., 1998a). Vector prIns1.DsRed was generated by exchanging the EGFP-expression cassette versus the DsRed-expression cassette obtained from pDsRed1-1 (Clontech). Plasmid prβGK.GFP (i.e. prβGK-278.GFP) was generated by exchanging the CAT-SV40pA-expression cassette of prβGK-278.CAT (Leibiger et al., 1994a) versus the EGFP-bGHpA-expression cassette obtained from pRcCMVI.GFP (Moede et al., 1999). […] All vector constructions were verified by DNA sequence analysis. Constructs for expression of the human Insulin Receptor A and B types, pCMVHIR(A) and pCMVHIR(B) and the control plasmid pCMVstop were kindly provided by Dr. A. Ullrich (Max-Planck-Institute for Biochemistry, Martinsried, Germany). Expression constructs pCMV5.PKBα, pCMV5.PKBαΔ308/437, pCMV5.PDK1 and pCMV5.PDK1-antisense were kindly provided by Drs. P. Cohen and D. R. Alessi (MRC Phosphorylation Unit, University of Dundee, UK).
as §1, §2
as §3, with “Industries). The following filter-settings were used: for GFPs65T: excitation at 485 nm, a 505 nm dicroic mirror and an emission band-pass filter of 500-530 nm; for DsRed: excitation at 558 nm, a 565 nm dicroic mirror and a 580 nm long-pass filter for emission […]” for “Industries).”

[2] = co-transfected HIT cells, 5 mU insulin/ml (FIG. 9A)
[3] = co-transfected HIT cells, 5 mU insulin/ml (FIG. 9B)
[4] = 2.6 nM IGF-I, insulin-producing cells

In the case of [Cl-].[K+] [KCI, KCl], the “βGK mRNA steady state levels upon secretagogue stimulation” value (βGK mRNA) is reported as “increase” and the “βGK promoter-driven GFP expression upon secretagogue stimulation” value (rat βGK promoter) is reported as “elevation”.
O=c1cc(N2CCOCC2)oc2c(-c3ccccc3)cccc12 [LY294002] was tested, and the “effect of inhibitor on insulin-stimulated βGK transcription / promoter activity” value (rat βGK promoter) was “not inhibited”, the “effect of inhibitor on insulin-stimulated βGK promoter activity (GFP) in the same co-transfected cell” value (rat βGK promoter) was “no effect” and the “concentration necessary to completely abolish insulin-stimulated βGK promoter activity” value (rat βGK promoter; [2]) was 100 µM. The “concentration that blocked insulin-stimulated insulin promoter activity” value [1, 2] was 25 µM.
With COc1cccc(-c2cc(=O)c3ccccc3o2)c1N [PD98059] the “effect of inhibitor on insulin-stimulated βGK transcription / promoter activity” value (rat βGK promoter) was “not sensitive”.
In the case of CN(C)CCCn1cc(C2=C(c3c[nH]c4ccccc34)C(=O)NC2=O)c2ccccc21 [bisindolylmalemide I], the “effect of inhibitor on insulin-stimulated βGK transcription / promoter activity” value (rat βGK promoter) is reported as “not sensitive”.
In the case of COc1ccc(Cl)cc1C(=O)NCCc1ccc(S(=O)(=O)NC(=O)NC2CCCCC2)cc1 [glibenclamide], the “βGK mRNA steady state levels upon secretagogue stimulation” value (βGK mRNA) is reported as “increase” and the “βGK promoter-driven GFP expression upon secretagogue stimulation” value (rat βGK promoter) is reported as “elevation”.
CO[C@H]1C[C@@H]2CC[C@@H](C)[C@@](O)(O2)C(=O)C(=O)N2CCCC[C@H]2C(=O)O[C@H]([C@H](C)C[C@@H]2CC[C@@H](O)[C@H](OC)C2)CC(=O)[C@H](C)/C=C(\C)[C@@H](O)[C@@H](OC)C(=O)[C@H](C)C[C@H](C)/C=C/C=C/C=C/1C [rapamycin] was tested, and the “effect of inhibitor on insulin-stimulated βGK transcription / promoter activity” value (rat βGK promoter) was “not inhibited” and the “effect of inhibitor on insulin-stimulated βGK promoter activity (GFP) in the same co-transfected cell” value (rat βGK promoter) was “no effect”.
COC[C@H]1OC(=O)c2coc3c2[C@@]1(C)C1=C(C3=O)[C@@H]2CCC(=O)[C@@]2(C)C[C@H]1OC(C)=O [wortmannin] was tested, and the “concentration necessary to block insulin-stimulated βGK promoter activity” value (rat βGK promoter; [3]) was 150 nM and the “concentration sufficient to inhibit insulin-stimulated insulin promoter activity” value [1, 3] was 50 nM.
In the case of IGF-I, the “βGK promoter-driven reporter gene expression upon IGF-I stimulation” value (rat βGK promoter; [4]) is reported as “did not activate” and the “insulin promoter-driven reporter gene expression upon IGF-I stimulation” value [1, 4] is reported as “did not activate”.
